From patent publication US9907800B2, “Kinase inhibitors and method of treating cancer” (University Health Network, priority 2010, dated 2018)

Columns and labels:
Type in all cases: biochemical
human PLK4 = human PLK4 (Homo sapiens (Human), UniProt O00444); experiment: PLK4 inhibition assay (indirect ELISA); details: read-out: PLK4 IC50 Ranges
Aurora B = Aurora B (Homo sapiens (Human), UniProt Q96GD4); experiment: Aurora B inhibition assay (Z-Lyte); details: read-out: Aurora B IC50 Ranges
Method: Aurora B inhibition was determined using the Z-Lyte assay kit from Invitrogen. […] The % inhibition values were determined according to the manufacturer's directions and IC50 values were obtained using a non-linear 4 point logistic curve fit (XLfit4, IDBS)

FLT3 = FLT3 (Homo sapiens (Human), UniProt P36888); experiment: FLT3 inhibition assay (Z-Lyte); details: read-out: Flt3 IC50 Ranges
Chain of FLT3 (P36888 27-993): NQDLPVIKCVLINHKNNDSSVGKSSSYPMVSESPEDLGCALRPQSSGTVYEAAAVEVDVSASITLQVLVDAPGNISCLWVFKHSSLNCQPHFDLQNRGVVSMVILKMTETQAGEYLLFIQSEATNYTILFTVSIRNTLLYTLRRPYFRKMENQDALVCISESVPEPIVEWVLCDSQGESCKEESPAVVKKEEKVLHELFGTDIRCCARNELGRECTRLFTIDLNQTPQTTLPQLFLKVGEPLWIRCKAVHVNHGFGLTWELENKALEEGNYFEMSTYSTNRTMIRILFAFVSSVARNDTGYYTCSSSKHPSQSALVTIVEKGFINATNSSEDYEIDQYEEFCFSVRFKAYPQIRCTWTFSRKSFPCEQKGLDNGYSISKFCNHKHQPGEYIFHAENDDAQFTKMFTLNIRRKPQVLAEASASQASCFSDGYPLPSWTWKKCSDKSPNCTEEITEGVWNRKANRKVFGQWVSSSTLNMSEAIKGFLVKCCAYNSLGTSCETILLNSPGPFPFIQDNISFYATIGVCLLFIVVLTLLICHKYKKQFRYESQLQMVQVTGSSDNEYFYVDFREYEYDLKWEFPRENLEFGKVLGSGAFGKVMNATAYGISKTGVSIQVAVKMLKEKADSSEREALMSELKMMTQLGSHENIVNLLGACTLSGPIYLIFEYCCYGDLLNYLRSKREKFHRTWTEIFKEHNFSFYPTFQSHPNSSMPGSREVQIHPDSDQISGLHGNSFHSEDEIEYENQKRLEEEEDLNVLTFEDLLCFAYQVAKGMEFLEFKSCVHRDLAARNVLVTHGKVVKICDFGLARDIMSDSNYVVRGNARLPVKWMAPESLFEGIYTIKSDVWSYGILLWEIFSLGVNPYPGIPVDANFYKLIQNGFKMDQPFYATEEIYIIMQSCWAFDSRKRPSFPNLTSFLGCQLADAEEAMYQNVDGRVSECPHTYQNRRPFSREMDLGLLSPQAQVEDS
Method: The enzymatic activity of FLT3 was determined using the Z-Lyte assay kit from Invitrogen (Invitrogen cat #PV3191). […] The % inhibition values were determined according to the manufacturer's directions and IC50 values were obtained using a non-linear 4 point logistic curve fit (XLfit4, IDBS).

Chain of Aurora B (Q96GD4 whole entry): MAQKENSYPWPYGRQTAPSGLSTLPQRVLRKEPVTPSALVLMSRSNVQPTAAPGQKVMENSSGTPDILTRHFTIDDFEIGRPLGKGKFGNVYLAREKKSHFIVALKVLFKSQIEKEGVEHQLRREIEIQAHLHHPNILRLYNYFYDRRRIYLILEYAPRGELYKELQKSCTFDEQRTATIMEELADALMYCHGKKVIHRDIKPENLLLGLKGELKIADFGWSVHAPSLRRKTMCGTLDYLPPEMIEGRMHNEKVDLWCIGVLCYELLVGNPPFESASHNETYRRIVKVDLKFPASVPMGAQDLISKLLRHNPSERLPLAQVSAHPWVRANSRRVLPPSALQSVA
Chain of human PLK4 (O00444 1-391): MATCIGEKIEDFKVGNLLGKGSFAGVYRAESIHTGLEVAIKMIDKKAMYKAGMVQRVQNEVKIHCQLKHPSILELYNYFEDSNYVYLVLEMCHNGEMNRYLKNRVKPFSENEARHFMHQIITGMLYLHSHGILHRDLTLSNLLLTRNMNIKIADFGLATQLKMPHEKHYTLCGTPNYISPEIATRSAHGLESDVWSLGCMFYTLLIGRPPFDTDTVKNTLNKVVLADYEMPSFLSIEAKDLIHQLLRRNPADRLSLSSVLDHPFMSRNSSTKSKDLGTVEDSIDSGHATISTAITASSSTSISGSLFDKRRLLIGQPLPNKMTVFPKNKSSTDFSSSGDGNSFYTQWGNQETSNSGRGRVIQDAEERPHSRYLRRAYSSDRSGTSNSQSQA

SMILES	IC50 (human PLK4) [µM]	IC50 (Aurora B) [µM]	IC50 (FLT3) [µM]
COc1ccc2c(c1)[C@]1(C[C@H]1c1ccc3c(-c4cccc(CN5CCCCC5)c4)n[nH]c3c1)C(=O)N2 (relative stereo) [Example A44, (1R*,2S*)-5′-methoxy-2-(3-(3-(piperidin-1-ylmethyl)phenyl)-1H-indazol-6-yl)spiro[cyclopropane-1,3′-indolin]-2′-one 2,2,2-trifluoroacetate]	< 0.1	0.1 to 1	> 1
COc1ccc2c(c1)[C@]1(C[C@H]1c1ccc3c(-c4ccc(CO)cc4)n[nH]c3c1)C(=O)N2 (relative stereo) [Example A45, (1R*,2S*)-2-(3-(4-(hydroxymethyl)phenyl)-1H-indazol-6-yl)-5′-methoxyspiro[cyclopropane-1,3′-indolin]-2′-one 2,2,2-trifluoroacetate]	< 0.1	0.1 to 1	> 1
COc1ccc2c(c1)[C@]1(C[C@H]1c1ccc3c(-c4cccc(N5CCNCC5)c4)n[nH]c3c1)C(=O)N2 (relative stereo) [Example A47, (1R*,2S*)-5′-methoxy-2-(3-(3-(piperazin-1-yl)phenyl)-1H-indazol-6-yl)spiro[cyclopropane-1,3′-indolin]-2′-one 2,2,2-trifluoroacetate]	< 0.1	0.1 to 1	> 1
CCc1ccc2c(c1)[C@]1(C[C@H]1c1ccc3c(-c4cccc(CN5CCOCC5)c4)n[nH]c3c1)C(=O)N2 (relative stereo) [Example A141, (1R*,2S*)-5′-ethyl-2-(3-(3-(morpholinomethyl)phenyl)-1H-indazol-6-yl)spiro[cyclopropane-1,3′-indolin]-2′-one 2,2,2-trifluoroacetate]	> 1	> 1	> 1
COc1ccc2c(c1)[C@]1(C[C@H]1c1ccc3c(-c4ccc(N5CCN(C(C)C)CC5)cc4)n[nH]c3c1)C(=O)N2 [Example A97, (1R,2S)-2-(3-(4-(4-isopropylpiperazin-1-yl)phenyl)-1H-indazol-6-yl)-5′-methoxyspiro[cyclopropane-1,3′-indolin]-2′-one 2,2,2-trifluoroacetate]	–	–	< 0.1
COc1ccc2c(c1)[C@]1(C[C@H]1c1ccc3c(-c4ccc(N5CC[C@H](N(C)C)C5)cc4)n[nH]c3c1)C(=O)N2 [Example A128, (1R,2S)-2-(3-(4-((S)-3-(dimethylamino)pyrrolidin-1-yl)phenyl)-1H-indazol-6-yl)-5′-methoxyspiro[cyclopropane-1,3′-indolin]-2′-one 2,2,2-trifluoroacetate]	< 0.1	–	0.1 to 1
COc1ccc2c(c1)[C@]1(C[C@H]1c1ccc3c(/C=C/c4cccc(CN5CCOCC5)c4)n[nH]c3c1)C(=O)N2 [Example A132, (1R,2S)-5′-methoxy-2-(3-(3-(morpholinomethyl)styryl)-1H-indazol-6-yl)spiro[cyclopropane-1,3′-indolin]-2′-one 2,2,2-trifluoroacetate]	–	–	< 0.1
COc1ccc2c(c1)[C@]1(C[C@H]1c1ccc3c(/C=C/c4cccc(CN(C)C)c4)n[nH]c3c1)C(=O)N2 [Example A134, (1R,2S)-2-(3-(3-((dimethylamino)methyl)styryl)-1H-indazol-6-yl)-5′-methoxyspiro[cyclopropane-1,3′-indolin]-2′-one 2,2,2-trifluoroacetate]	–	–	< 0.1
COc1ccc2c(c1)[C@]1(C[C@H]1c1ccc3c(/C=C/c4csc(CN5CCOCC5)c4)n[nH]c3c1)C(=O)N2 [Example A183, (1R,2S)-5′-methoxy-2-(3-((E)-2-(5-(morpholinomethyl)thiophen-3-yl)vinyl)-1H-indazol-6-yl)spiro[cyclopropane-1,3′-indolin]-2′-one 2,2,2-trifluoroacetate]	< 0.1	< 0.1	–
COc1ccc2c(c1)[C@]1(C[C@H]1c1ccc3c(/C=C/c4ccc(CN5C[C@@H](C)O[C@@H](C)C5)cc4)n[nH]c3c1)C(=O)N2 [Example A185]	–	–	0.1 to 1
CCN1CCN(c2ccc(/C=C/c3n[nH]c4cc([C@@H]5C[C@@]56C(=O)Nc5ccc(OC)cc56)ccc34)cc2)CC1 [Example A187, (1R,2S)-(E)-2-(3-(4-(4-ethylpiperazin-1-yl)styryl)-1H-indazol-6-yl)-5′-methoxyspiro[cyclopropane-1,3′-indolin]-2′-one 2,2,2-trifluoroacetate]	< 0.1	< 0.1	–
COc1ccc2c(c1)[C@]1(C[C@H]1c1ccc3c(-c4ccc(N5CCN(CCO)CC5)cc4)n[nH]c3c1)C(=O)N2 [Example A191, (1R,2S)-2-(3-(4-(4-(2-hydroxyethyl)piperazin-1-yl)phenyl)-1H-indazol-6-yl)-5′-methoxyspiro[cyclopropane-1,3′-indolin]-2′-one 2,2,2-trifluoroacetate]	< 0.1	< 0.1	–
COc1ccc2c(c1)[C@]1(C[C@H]1c1ccc3c(-c4ccc(N5CCN(C6CCCCC6)CC5)cc4)n[nH]c3c1)C(=O)N2 [Example A193, (1R,2S)-2-(3-(4-(4-cyclohexylpiperazin-1-yl)phenyl)-1H-indazol-6-yl)-5′-methoxyspiro[cyclopropane-1,3′-indolin]-2′-one 2,2,2-trifluoroacetate]	< 0.1	< 0.1	–
COc1ccc2c(c1)[C@]1(C[C@H]1c1ccc3c(/C=C/c4ccc(OCCN5CCOCC5)cc4)n[nH]c3c1)C(=O)N2 [Example A194, (1R,2S)-(E)-5′-methoxy-2-(3-(4-(2-morpholinoethoxy)styryl)-1H-indazol-6-yl)spiro[cyclopropane-1,3′-indolin]-2′-one 2,2,2-trifluoroacetate]	< 0.1	< 0.1	–
COc1ccc2c(c1)[C@]1(C[C@H]1c1ccc3c(/C=C/c4cccnc4)n[nH]c3c1)C(=O)N2 [Example A197, (1R,2S)-5′-methoxy-2-(3-((E)-2-(pyridin-3-yl)vinyl)-1H-indazol-6-yl)spiro[cyclopropane-1,3′-indolin]-2′-one]	< 0.1	< 0.1	–
COc1ccc2c(c1)[C@]1(C[C@H]1c1ccc3c(/C=C/c4ccc(CN5CCOCC5)c(F)c4)n[nH]c3c1)C(=O)N2 [Example A199, (1R,2S)-(E)-2-(3-(3-fluoro-4-(morpholinomethyl)styryl)-1H-indazol-6-yl)-5′-methoxyspiro[cyclopropane-1,3′-indolin]-2′-one 2,2,2-trifluoroacetate]	< 0.1	< 0.1	–
O=C1Nc2ccccc2[C@]12C[C@H]2c1ccc2c(/C=C/c3ccc(CN4CCOCC4)c(F)c3)n[nH]c2c1 [Example A200, (1R,2S)-(E)-2-(3-(3-fluoro-4-(morpholinomethyl)styryl)-1H-indazol-6-yl)spiro[cyclopropane-1,3′-indolin]-2′-one 2,2,2-trifluoroacetate]	< 0.1	< 0.1	–
C[C@@H]1CCC[C@H](C)N1Cc1ccc(/C=C/c2n[nH]c3cc([C@@H]4C[C@@]45C(=O)Nc4ccccc45)ccc23)cc1 [Example A201, (1R,2S)-(E)-2-(3-(4-((cis-2,6-dimethylpiperidin-1-yl)methyl)styryl)-1H-indazol-6-yl)spiro[cyclopropane-1,3′-indolin]-2′-one 2,2,2-trifluoroacetate]	< 0.1	< 0.1	–
O=C1Nc2ccccc2[C@]12C[C@H]2c1ccc2c(/C=C/c3csc(CN4CCOCC4)c3)n[nH]c2c1 [Example A202, (1R,2S)-2-(3-((E)-2-(5-(morpholinomethyl)thiophen-3-yl)vinyl)-1H-indazol-6-yl)spiro[cyclopropane-1,3′-indolin]-2′-one 2,2,2-trifluoroacetate]	< 0.1	< 0.1	–
COc1ccc2c(c1)[C@]1(C[C@H]1c1ccc3c(/C=C/c4ccc(CN5[C@H](C)CCC[C@@H]5C)cc4)n[nH]c3c1)C(=O)N2 [Example A203, (1R,2S)-(E)-2-(3-(4-((cis-2,6-dimethylpiperidin-1-yl)methyl)styryl)-1H-indazol-6-yl)-5′-methoxyspiro[cyclopropane-1,3′-indolin]-2′-one 2,2,2-trifluoroacetate]	< 0.1	< 0.1	–
O=C1Nc2ccccc2[C@]12C[C@H]2c1ccc2c(/C=C/c3ccc(OCCN4CCOCC4)cc3)n[nH]c2c1 [Example A204, (1R,2S)-(E)-2-(3-(4-(2-morpholinoethoxy)styryl)-1H-indazol-6-yl)spiro[cyclopropane-1,3′-indolin]-2′-one 2,2,2-trifluoroacetate]	< 0.1	< 0.1	–
O=C1Nc2ccccc2[C@]12C[C@H]2c1ccc2c(/C=C/c3ccc(CCN4CCOCC4)cc3)n[nH]c2c1 [Example A205, (1R,2S)-(E)-2-(3-(4-(2-morpholinoethyl)styryl)-1H-indazol-6-yl)spiro[cyclopropane-1,3′-indolin]-2′-one 2,2,2-trifluoroacetate]	< 0.1	< 0.1	–
CCN(CC)Cc1ccc(/C=C/c2n[nH]c3cc([C@@H]4C[C@@]45C(=O)Nc4ccc(OC)cc45)ccc23)cc1 [Example A206, (1R,2S)-(E)-2-(3-(4-((diethylamino)methyl)styryl)-1H-indazol-6-yl)-5′-methoxy spiro[cyclopropane-1,3′-indolin]-2′-one 2,2,2-trifluoroacetate]	< 0.1	< 0.1	–
COc1ccc2c(c1)[C@]1(C[C@H]1c1ccc3c(/C=C/c4cc(F)c(CN(C)C)c(F)c4)n[nH]c3c1)C(=O)N2 [Example A216, (1R,2S)-(E)-2-(3-(4-((dimethylamino)methyl)-3,5-difluorostyryl)-1H-indazol-6-yl)-5′-methoxyspiro[cyclopropane-1,3′-indolin]-2′-one 2,2,2-trifluoroacetate]	< 0.1	< 0.1	–
CCN(CC)Cc1c(F)cc(/C=C/c2n[nH]c3cc([C@@H]4C[C@@]45C(=O)Nc4ccccc45)ccc23)cc1F [Example A221, (1R,2S)-(E)-2-(3-(4-((diethylamino)methyl)-3,5-difluorostyryl)-1H-indazol-6-yl)spiro[cyclopropane-1,3′-indolin]-2′-one 2,2,2-trifluoroacetate]	< 0.1	< 0.1	–
